Data as given in patent US9872875B2, “Component and method for treating viral disease” (Institut Pasteur of Shanghai, Chinese Academy of Sciences, priority 2012, dated 2018).
Where two headings read alike, the source gives them in different places.

How the values were obtained:
P2X2 receptor = biological target: T1, P2X2 receptor (Homo sapiens, UniProt Q9UBL9); design: key: −: no activity; +: activating concentration >10 μM; ++: activating concentration 1~10 μM; +++: activating concentration <1 μM; details: cited from earlier work
T1 sequence (Q9UBL9 1-471): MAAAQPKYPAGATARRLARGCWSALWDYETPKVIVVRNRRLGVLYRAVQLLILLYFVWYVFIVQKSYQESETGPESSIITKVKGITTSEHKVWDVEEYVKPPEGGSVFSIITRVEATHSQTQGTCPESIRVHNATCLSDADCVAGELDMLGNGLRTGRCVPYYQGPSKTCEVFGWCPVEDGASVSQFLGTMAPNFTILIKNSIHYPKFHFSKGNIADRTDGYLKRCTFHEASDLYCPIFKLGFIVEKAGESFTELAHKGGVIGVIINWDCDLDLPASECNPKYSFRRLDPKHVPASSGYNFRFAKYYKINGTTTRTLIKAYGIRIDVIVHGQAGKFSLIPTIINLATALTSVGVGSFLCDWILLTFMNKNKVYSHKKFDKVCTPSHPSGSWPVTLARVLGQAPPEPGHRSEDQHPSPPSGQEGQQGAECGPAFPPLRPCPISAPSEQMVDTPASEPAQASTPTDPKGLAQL

EV71 [1] = assay: Effects of other antagonists and agonists on EV71 (Table 9); type: cell-based, Enterovirus 71; design: key: “NO” indicates there is negative
P2X1 receptor = biological target: T2, P2X1 receptor (Homo sapiens, UniProt P51575); design: key: −: no activity; +: activating concentration >10 μM; ++: activating concentration 1~10 μM; +++: activating concentration <1 μM; details: cited from earlier work
T2 sequence (P51575 1-399): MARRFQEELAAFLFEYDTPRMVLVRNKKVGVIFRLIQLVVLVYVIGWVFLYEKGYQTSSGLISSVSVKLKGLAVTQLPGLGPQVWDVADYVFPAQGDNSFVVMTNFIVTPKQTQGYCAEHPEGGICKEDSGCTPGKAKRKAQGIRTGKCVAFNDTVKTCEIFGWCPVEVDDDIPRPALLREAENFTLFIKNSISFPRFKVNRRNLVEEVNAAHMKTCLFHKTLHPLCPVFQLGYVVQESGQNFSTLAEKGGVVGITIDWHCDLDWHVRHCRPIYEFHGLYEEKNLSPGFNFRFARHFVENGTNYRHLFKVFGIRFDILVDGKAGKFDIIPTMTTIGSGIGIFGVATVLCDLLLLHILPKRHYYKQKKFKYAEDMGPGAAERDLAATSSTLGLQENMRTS

P2X7 receptor = biological target: T3, P2X7 receptor (Homo sapiens, UniProt Q99572); details: cited from earlier work
T3 sequence (Q99572 1-595): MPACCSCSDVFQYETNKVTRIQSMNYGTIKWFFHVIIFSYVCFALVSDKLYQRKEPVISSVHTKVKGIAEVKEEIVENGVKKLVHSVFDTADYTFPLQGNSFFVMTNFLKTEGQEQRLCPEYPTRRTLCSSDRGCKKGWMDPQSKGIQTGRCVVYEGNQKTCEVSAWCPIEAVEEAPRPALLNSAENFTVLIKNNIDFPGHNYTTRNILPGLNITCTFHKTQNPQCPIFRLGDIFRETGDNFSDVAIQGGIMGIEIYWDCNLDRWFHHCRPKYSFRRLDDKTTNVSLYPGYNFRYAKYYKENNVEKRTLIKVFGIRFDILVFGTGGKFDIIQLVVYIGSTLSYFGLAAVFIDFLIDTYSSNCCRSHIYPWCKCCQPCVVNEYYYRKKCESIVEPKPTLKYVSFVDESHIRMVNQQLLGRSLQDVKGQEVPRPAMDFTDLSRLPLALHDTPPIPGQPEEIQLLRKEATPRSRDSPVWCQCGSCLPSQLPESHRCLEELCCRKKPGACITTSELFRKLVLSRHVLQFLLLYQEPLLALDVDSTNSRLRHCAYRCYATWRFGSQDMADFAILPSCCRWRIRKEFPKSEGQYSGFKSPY

P2X3 receptor = biological target: T4, P2X3 receptor (Homo sapiens, UniProt P56373); details: cited from earlier work
T4 sequence (P56373 1-397): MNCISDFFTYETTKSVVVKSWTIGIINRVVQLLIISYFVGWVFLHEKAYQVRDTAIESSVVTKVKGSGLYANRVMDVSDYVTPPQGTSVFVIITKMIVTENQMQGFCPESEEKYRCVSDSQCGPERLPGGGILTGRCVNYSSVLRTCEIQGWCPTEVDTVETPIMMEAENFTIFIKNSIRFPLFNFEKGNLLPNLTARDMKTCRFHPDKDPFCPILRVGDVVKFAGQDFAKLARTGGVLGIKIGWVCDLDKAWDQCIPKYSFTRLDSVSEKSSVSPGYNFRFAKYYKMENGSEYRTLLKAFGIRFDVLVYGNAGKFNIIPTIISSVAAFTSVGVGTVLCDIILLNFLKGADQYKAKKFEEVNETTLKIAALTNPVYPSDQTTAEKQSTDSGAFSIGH

EV71 [2] = assay: Inhibition of EV71 replication in RD cells at 0.1, 1, 10 and 100 μM (CPE, crystal violet); type: cell-based, Enterovirus 71; design: key to Inhibition of EV71 replication: −: no activity
Experimental: Inhibitory effect of each P2X receptor antagonists and agonists on EV71 replication was measured at 0.1, 1, 10, and 100 μM. Specific procedures refer to “1” of Example 1. after infection, however, cells need to be incubated for 3˜4 days, stained with crystal violet, and observed under optical microscope to determine whether or not CPE (cytopathic effect) was present. In addition, the effect of compounds at each concentration on cytotoxicity to RD cells was determined. After culturing RD cells in various concentrations of compounds for 3˜4 days, stained with crystal violet, and observed under optical microscope to observe whether or not cell layer was damaged. Compounds capable of protecting cells from infection without damage of healthy cell layer can inhibit EV71 replication in RD cells.

P2X4 receptor = biological target: T5, P2X4 receptor (Homo sapiens, UniProt Q99571); details: cited from earlier work
T5 sequence (Q99571 1-388): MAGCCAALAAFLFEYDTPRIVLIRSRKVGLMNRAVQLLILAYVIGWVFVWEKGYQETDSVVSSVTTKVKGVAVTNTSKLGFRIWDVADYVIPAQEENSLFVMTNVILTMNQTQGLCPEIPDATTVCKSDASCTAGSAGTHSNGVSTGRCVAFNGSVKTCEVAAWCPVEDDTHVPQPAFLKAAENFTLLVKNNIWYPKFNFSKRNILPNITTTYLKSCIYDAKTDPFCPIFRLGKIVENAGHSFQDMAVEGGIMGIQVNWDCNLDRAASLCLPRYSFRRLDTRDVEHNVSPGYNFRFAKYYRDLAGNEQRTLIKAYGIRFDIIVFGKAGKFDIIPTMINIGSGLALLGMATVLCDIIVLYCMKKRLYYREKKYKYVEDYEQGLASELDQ

P2X5 receptor = P2X5 receptor (Homo sapiens, UniProt Q93086); details: cited from earlier work
Sequence of P2X5 receptor (Q93086 whole entry): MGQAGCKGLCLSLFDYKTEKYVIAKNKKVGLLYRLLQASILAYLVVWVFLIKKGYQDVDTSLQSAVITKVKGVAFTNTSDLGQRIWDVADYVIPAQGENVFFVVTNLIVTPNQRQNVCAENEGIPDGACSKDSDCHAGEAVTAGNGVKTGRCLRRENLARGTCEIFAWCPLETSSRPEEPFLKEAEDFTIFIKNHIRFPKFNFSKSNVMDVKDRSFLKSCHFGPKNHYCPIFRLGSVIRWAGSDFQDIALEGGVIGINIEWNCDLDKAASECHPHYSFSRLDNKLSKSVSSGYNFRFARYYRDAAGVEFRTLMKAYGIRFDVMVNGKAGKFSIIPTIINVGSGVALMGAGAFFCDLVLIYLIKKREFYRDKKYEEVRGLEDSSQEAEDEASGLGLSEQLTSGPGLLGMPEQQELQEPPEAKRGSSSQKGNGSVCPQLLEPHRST

Row | Molecule | EV71 Log10 reduction (EV71 [1]) | P2X receptors 2 (P2X2 receptor; Table 8, antagonists) | P2X receptors 1 (P2X1 receptor; Table 8, antagonists) | P2X receptors 3 (P2X3 receptor; Table 8, antagonists) | inhibition of EV71 replication (statement in words) (EV71 [2]) | Inhibition of EV71 replication (EV71 [2]; Table 8, antagonists) | P2X receptors 2 (P2X2 receptor; Table 8, agonists) | P2X receptors 1 (P2X1 receptor; Table 8, agonists) | P2X receptors 3 (P2X3 receptor; Table 8, agonists) | Inhibition of EV71 replication (EV71 [2]; Table 8, agonists) | P2X receptors 5 (P2X5 receptor; Table 8, agonists) | P2X receptors 5 (P2X5 receptor; Table 9, agonists) | P2X receptors 4 (P2X4 receptor; Table 8, agonists) | also measured
1 | CCOc1ccc(Nc2ccc(/C(=C3C=C/C(=[N+](/CC)Cc4cccc(S(=O)(=O)[O-])c4)C=C/3C)c3ccc(N(CC)Cc4cccc(S(=O)(=O)[O-])c4)cc3C)cc2)cc1.[Na+] [BBG] | NO |  |  |  |  |  |  |  |  |  |  |  |  | P2X receptors 2 (P2X2 receptor; Table 9, antagonists): ✓ (✓ activating concentration >300 nM); P2X receptors 1 (P2X1 receptor; Table 9, antagonists): ✓ (✓ activating concentration >300 nM); P2X receptors 7 (P2X7 receptor; Table 9, antagonists): ✓ ✓ ✓ (✓ ✓ ✓ activating concentration <10 nM)
2 | O=C(Nc1ccc(C(=O)Nc2ccc(C(=O)Nc3ccc(S(=O)(=O)O)c4cc(S(=O)(=O)O)cc(S(=O)(=O)O)c34)cc2)cc1)Nc1ccc(C(=O)Nc2ccc(C(=O)Nc3ccc(S(=O)(=O)O)c4cc(S(=O)(=O)O)cc(S(=O)(=O)O)c34)cc2)cc1 [NF279, 8,8′-(carbonylbis(imino-4,1-phenylenecarbonylimino-4,1-phenylenecarbonylimino))bis(1,3,5-naphthalenetrisulfonic acid)] |  | + (+: inhibitory concentration >300 nM) | +++ (+++: inhibitory concentration <10 nM) | + (+: inhibitory concentration >300 nM) | can also inhibit EV71 replication | + (+: inhibitory concentration >300 nM) |  |  |  |  |  |  |  | P2X receptors 4 (P2X4 receptor; Table 8, antagonists): −; P2X receptors 7 (P2X7 receptor; Table 8, antagonists): + (+: inhibitory concentration >300 nM)
3 | O=c1ccn([C@@H]2O[C@H](COP(=O)(O)OP(=O)(O)OP(=O)(O)O)[C@@H](O)[C@H]2O)c(=O)[nH]1 [UTP, uridine triphosphate] | NO |  |  |  |  |  | − | − | − | − | + (+: activating concentration >10 μM) | ✓ (✓ activating concentration >10 μM) | − | 
4 | Cc1nc(N=Nc2cc(S(=O)(=O)O)ccc2S(=O)(=O)O)c(COP(=O)(O)O)c(C=O)c1O [iso-PPADS, pyridoxal-phosphate-6-azophenyl-2′,5′-disulphonic acid] |  | ++ (++: inhibitory concentration = 10~300 nM) | ++ (++: inhibitory concentration = 10~300 nM) | ++ (++: inhibitory concentration = 10~300 nM) | can also inhibit EV71 replication | + (+: inhibitory concentration >300 nM) |  |  |  |  |  |  |  | 
5 | Ivermectine | NO |  |  |  |  |  |  |  |  | − |  |  | ++ (++: activating concentration 1~10 μM) | P2X receptors 4 (P2X4 receptor; Table 9, modulator, no key printed for this class): ✓ ✓ ✓
6 | bzATP | NO |  |  |  |  |  | ++ (++: activating concentration 1~10 μM) | +++ (+++: activating concentration <1 μM) | + (+: activating concentration >10 μM) | − | ++ (++: activating concentration 1~10 μM) | ✓ ✓ (✓ ✓ activating concentration 1-10 μM) | +++ (+++: activating concentration <1 μM) | P2X receptors 2 (P2X2 receptor; Table 9, agonists): ✓ ✓ (✓ ✓ activating concentration 1-10 μM); P2X receptors 1 (P2X1 receptor; Table 9, agonists): ✓ ✓ ✓ (✓ ✓ ✓ activating concentration <1 μM); P2X receptors 3 (P2X3 receptor; Table 9, agonists): ✓ (✓ activating concentration >10 μM); P2X receptors 4 (P2X4 receptor; Table 9, agonists): ✓ ✓ ✓ (✓ ✓ ✓ activating concentration <1 μM); P2X receptors 7 (P2X7 receptor; Table 8, agonists): ++ (++: activating concentration 1~10 μM); P2X receptors 7 (P2X7 receptor; Table 9, agonists): ✓ ✓ ✓ (✓ ✓ ✓ activating concentration <1 μM)
